Data reported in ChEMBL document CHEMBL3763037 (J Med Chem, 2016).

Experiments:
[1] = Oral bioavailability in Sprague-Dawley rat at 10 mg/kg by LC-MS/MS analysis; type: ADME, organism-based; conditions: Sprague-Dawley, in vivo
[2] = AUC in Sprague-Dawley rat at 10 mg/kg, po by LC-MS/MS analysis; type: ADME, organism-based; conditions: Sprague-Dawley, in vivo
[3] = Cmax in Sprague-Dawley rat at 10 mg/kg, po by LC-MS/MS analysis; type: ADME, organism-based; parameters: dose 10 mg/kg, route oral; conditions: in vivo
[4] = Volume of distribution at steady state in Sprague-Dawley rat at 5 mg/kg, iv by LC-MS/MS analysis; type: ADME, organism-based; conditions: in vivo, read-out: Vdss
[5] = Clearance in Sprague-Dawley rat at 5 mg/kg, iv by LC-MS/MS analysis; type: ADME, organism-based; conditions: in vivo
Rattus norvegicus = assay: Terminal eliminational half life in Sprague-Dawley rat at 5 mg/kg, iv by LC-MS/MS analysis; type: ADME, organism-based; conditions: in vivo
CYP2C19 = CYP2C19 (Homo sapiens, UniProt P33261); assay: Inhibition of CYP2C19 (unknown origin) at 10 uM; type: ADME
Chain of CYP2C19 (P33261 whole entry): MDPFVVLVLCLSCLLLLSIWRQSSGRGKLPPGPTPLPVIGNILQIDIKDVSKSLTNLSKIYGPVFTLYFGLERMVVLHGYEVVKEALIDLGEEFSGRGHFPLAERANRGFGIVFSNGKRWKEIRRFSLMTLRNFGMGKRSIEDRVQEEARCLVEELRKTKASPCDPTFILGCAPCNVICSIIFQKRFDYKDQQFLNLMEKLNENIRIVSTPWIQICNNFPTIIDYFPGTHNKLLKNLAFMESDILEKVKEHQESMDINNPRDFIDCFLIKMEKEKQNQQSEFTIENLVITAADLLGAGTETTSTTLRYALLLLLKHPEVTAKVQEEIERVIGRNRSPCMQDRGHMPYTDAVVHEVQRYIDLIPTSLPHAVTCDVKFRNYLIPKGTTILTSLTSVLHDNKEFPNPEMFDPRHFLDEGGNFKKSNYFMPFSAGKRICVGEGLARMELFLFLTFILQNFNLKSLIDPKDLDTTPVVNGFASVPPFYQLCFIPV

[6] = molecular target: Voltage-gated inwardly rectifying potassium channel KCNH2 (Homo sapiens, UniProt Q12809); assay: Inhibition of human ERG by cell based assay
Chain of Voltage-gated inwardly rectifying potassium channel KCNH2 (Q12809 whole entry): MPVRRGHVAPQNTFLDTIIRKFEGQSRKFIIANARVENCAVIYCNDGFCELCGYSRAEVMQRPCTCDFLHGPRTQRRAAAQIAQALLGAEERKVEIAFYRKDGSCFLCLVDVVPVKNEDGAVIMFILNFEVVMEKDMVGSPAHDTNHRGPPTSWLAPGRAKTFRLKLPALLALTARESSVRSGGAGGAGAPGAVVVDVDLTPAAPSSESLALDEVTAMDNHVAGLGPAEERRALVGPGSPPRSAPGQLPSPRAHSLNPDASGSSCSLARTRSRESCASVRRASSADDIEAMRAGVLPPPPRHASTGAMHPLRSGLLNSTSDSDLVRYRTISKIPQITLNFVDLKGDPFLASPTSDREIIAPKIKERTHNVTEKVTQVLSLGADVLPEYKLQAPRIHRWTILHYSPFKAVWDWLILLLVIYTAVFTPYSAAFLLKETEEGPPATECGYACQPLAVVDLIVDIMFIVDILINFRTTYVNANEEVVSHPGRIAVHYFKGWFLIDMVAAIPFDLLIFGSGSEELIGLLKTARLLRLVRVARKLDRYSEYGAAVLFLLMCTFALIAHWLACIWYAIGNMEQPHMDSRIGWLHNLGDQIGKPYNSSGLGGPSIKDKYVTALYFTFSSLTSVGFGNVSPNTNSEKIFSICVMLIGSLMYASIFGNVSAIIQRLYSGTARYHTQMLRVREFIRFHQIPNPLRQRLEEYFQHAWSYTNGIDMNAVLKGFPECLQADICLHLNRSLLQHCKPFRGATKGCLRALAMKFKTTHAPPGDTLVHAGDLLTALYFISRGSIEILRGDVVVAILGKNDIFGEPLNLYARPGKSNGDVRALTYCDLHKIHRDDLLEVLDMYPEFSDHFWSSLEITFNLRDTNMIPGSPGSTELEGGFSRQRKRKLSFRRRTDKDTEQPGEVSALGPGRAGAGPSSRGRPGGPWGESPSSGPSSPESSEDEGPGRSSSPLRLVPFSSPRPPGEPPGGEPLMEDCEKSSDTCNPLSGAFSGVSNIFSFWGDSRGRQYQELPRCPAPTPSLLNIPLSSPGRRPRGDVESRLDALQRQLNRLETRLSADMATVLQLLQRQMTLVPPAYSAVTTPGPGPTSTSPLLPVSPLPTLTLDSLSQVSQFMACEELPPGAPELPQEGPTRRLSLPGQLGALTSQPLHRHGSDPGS

[7] = Plasma protein binding in human; type: ADME, cell-free; conditions: read-out: PPB (converted)
CYP2C9 = CYP2C9 (Homo sapiens, UniProt P11712); assay: Inhibition of CYP2C9 (unknown origin) at 10 uM; type: ADME
Chain of CYP2C9 (P11712 whole entry): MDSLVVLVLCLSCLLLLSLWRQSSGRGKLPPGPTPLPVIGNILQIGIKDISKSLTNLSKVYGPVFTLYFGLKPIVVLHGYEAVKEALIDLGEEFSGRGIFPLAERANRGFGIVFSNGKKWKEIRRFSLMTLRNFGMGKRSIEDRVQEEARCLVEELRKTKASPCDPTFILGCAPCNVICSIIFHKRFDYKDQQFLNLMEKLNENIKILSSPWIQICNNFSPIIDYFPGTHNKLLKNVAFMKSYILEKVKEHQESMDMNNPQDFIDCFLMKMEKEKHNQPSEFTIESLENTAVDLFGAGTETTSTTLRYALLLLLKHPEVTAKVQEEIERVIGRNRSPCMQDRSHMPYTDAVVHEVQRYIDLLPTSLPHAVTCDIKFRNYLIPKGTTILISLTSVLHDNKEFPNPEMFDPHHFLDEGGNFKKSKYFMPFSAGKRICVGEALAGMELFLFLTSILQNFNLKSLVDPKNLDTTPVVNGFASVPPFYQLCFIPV

CYP2D6 = CYP2D6 (Homo sapiens, UniProt P10635); assay: Inhibition of CYP2D6 (unknown origin) at 10 uM; type: ADME
Chain of CYP2D6 (P10635 whole entry): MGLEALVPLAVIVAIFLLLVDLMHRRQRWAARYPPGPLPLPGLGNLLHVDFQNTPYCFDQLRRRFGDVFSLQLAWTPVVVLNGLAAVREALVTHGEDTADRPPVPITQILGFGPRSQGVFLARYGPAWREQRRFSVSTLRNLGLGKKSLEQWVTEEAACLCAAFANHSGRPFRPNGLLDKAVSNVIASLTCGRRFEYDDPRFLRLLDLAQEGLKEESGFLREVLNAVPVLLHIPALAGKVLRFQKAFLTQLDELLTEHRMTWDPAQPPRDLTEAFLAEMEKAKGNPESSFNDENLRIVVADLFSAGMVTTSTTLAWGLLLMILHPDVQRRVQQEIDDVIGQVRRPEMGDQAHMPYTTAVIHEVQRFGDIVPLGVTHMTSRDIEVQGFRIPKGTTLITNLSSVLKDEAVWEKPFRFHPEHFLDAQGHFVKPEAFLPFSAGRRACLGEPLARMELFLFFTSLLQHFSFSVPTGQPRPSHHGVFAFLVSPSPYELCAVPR

CYP3A4 = CYP3A4 (Homo sapiens, UniProt P08684); assay: Inhibition of CYP3A4 (unknown origin) at 10 uM; type: ADME
Chain of CYP3A4 (P08684 whole entry): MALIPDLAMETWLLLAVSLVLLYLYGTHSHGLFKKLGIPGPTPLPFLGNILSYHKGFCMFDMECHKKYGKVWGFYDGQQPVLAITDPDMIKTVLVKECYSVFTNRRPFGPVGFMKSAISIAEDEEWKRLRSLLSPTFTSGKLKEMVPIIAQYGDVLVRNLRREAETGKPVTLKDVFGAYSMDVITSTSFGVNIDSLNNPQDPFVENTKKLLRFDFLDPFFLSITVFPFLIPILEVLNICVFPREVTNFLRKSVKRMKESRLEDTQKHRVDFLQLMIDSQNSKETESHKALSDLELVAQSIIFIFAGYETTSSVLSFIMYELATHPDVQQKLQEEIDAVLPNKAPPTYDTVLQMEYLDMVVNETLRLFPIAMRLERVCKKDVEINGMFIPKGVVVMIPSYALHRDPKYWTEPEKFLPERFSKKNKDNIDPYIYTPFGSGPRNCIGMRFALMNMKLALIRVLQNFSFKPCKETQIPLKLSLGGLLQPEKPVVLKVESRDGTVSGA

CYP1A2 = molecular target: T1, CYP1A2 (Homo sapiens, UniProt P05177); assay: Inhibition of CYP1A2 (unknown origin) at 10 uM; type: ADME
T1 sequence (P05177 whole entry): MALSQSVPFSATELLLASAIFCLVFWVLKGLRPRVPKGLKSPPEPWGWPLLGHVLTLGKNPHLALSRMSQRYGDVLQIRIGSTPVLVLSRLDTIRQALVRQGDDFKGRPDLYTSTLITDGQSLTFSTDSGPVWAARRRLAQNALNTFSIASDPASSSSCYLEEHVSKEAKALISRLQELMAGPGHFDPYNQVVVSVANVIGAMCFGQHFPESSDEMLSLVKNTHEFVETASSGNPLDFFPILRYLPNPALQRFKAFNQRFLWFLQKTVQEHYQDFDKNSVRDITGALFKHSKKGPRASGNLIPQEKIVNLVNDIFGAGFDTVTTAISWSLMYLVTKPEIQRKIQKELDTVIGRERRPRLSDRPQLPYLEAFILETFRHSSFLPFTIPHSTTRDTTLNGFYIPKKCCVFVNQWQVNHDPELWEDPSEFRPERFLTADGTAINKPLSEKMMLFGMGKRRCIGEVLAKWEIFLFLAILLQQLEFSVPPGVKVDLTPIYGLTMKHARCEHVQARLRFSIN

Salmonella typhimurium = assay: Mutagenicity in Salmonella typhimurium at 5 mg by Ames test; type: toxicity, organism-based, Salmonella enterica subsp. enterica serovar Typhimurium; conditions: in vivo
[8] = Half life in beagle dog at 0.1 mg/kg, po; type: ADME, organism-based, Canis lupus familiaris; conditions: in vivo
[9] = Cytotoxicity against BRCA2-deficient human Capan1 cells; type: functional, cell-based, CAPAN-1; conditions: Homo sapiens, CAPAN-1
MRC5 = assay: Cytotoxicity against human MRC5 cells; type: cell-based; conditions: Homo sapiens, MRC5
[10] = AUC (0 to t) in beagle dog at 0.1 mg/kg, po; type: ADME, organism-based, Canis lupus familiaris; conditions: in vivo
[11] = AUC (0 to infinity) in beagle dog at 0.1 mg/kg, po; type: ADME, organism-based, Canis lupus familiaris; parameters: dose 0.1 mg/kg, route oral, time infinity; conditions: in vivo
[12] = Cmax in beagle dog at 0.1 mg/kg, po; type: ADME, organism-based, Canis lupus familiaris; parameters: dose 0.1 mg/kg, route oral; conditions: in vivo
[13] = Tmax in beagle dog at 0.1 mg/kg, po; type: ADME, organism-based, Canis lupus familiaris; conditions: in vivo
Canis familiaris = assay: Clast in beagle dog at 0.1 mg/kg, po; type: ADME, organism-based, Canis lupus familiaris; conditions: in vivo
[14] = Apparent oral clearance in beagle dog at 0.1 mg/kg, po; type: ADME, organism-based, Canis lupus familiaris; conditions: in vivo
[15] = Absolute oral bioavailability in beagle dog at 0.1 mg/kg; type: ADME, organism-based, Canis lupus familiaris; conditions: in vivo
[16] = Half life in human; type: ADME, organism-based; conditions: in vivo
Mus musculus [17] = assay: Toxicity in athymic nu/nu mouse assessed as mortality at 0.1 to 0.33 mg/kg, po qd for 28 days; type: organism-based; conditions: in vivo, 672 h
Mus musculus [18] = assay: Toxicity in athymic nu/nu mouse assessed as change in body weight at 0.1 to 0.33 mg/kg, po qd for 28 days; type: organism-based; conditions: in vivo, 672 h
LoVo = assay: cells; conditions: Homo sapiens, 120 h

With `Cn1ncnc1[C@H]1c2n[nH]c(=O)c3cc(F)cc(c23)N[C@@H]1c1ccc(F)cc1` [TALAZOPARIB] as the compound, how does the bioavailability [1] read?
The bioavailability was 56%.

What about the AUC [2] of the same compound?
The AUC was 56100 ng·h/mL.

And the Cmax [3]?
The Cmax was 7950 ng/mL.

What about the Vd [4] of the same compound?
Its Vd is 0.3 L/kg.

What about the clearance [5] of the same compound?
The clearance was 2 mL/min/kg.

What about the “beta t1/2” value (Rattus norvegicus) of the same compound?
Its value is 2.25 h.

What about the inhibition at 10 µM (CYP2C19) of the same compound?
Its inhibition at 10 µM is less than 12%.

What about the IC50 [6] of the same compound?
Its IC50 is greater than 100000 nM.

What about the fraction unbound [7] of the same compound?
The fraction unbound was 0.213.

What about the inhibition at 10 µM (CYP2C9) of the same compound?
Its inhibition at 10 µM is less than 12%.

And the inhibition at 10 µM (CYP2D6)?
The inhibition at 10 µM was less than 12%.

What about the inhibition at 10 µM (CYP3A4) of the same compound?
The inhibition at 10 µM was less than 12%.

What about the inhibition at 10 µM (CYP1A2) of the same compound?
Its inhibition at 10 µM is less than 12%.

What about the Activity (Salmonella typhimurium) of the same compound?
The Activity was “Non-toxic”.

And the half-life [8]?
Its half-life is 17.9 h.

What about the EC50 [9] of the same compound?
The EC50 was 5 nM.

What about the EC50 (MRC5) of the same compound?
The EC50 was 310 nM.

What about the AUC(0-t) [10] of the same compound?
The AUC(0-t) was 619 ng·h/mL.

And the AUC(0-inf) [11]?
Its AUC(0-inf) is 629 ng·h/mL.

And the Cmax [12]?
The Cmax was 72.2 ng/mL.

What about the Tmax [13] of the same compound?
Its Tmax is 2 h.

What about the Clast (Canis familiaris) of the same compound?
The Clast was 0.365 ng/mL.

What about the CL/F [14] of the same compound?
Its CL/F is 2.7 mL/min/kg.

And the bioavailability [15]?
The bioavailability was 121%.

And the half-life [16]?
Its half-life is 40 h.

What about the Activity (Mus musculus [17]) of the same compound?
The Activity was “Non-toxic”.

What about the Activity (Mus musculus [18]) of the same compound?
The Activity was “Non-toxic”.

What about the GI50 (LoVo) of the same compound?
The GI50 was 4 nM.
